Results as given in patent US4661297A, “Basic ethers of 7-oxo-7H-benzo(c) fluorene and a process for their production” (SPOFA, spojene podniky pro zdravotnickou vyrobu, priority 1980, dated 1987).
Where a name gives a salt, the structure may show the parent alone. Read-outs that look alike come from different tables or passages of the source. Blank lines part the entries; values can stand above or below the molecule they belong to.

Columns and labels:
[1] = system: Ehrlich's ascitic carcinoma; test: Incorporation of 14C-adenine and 14C-valine into cellular fraction of Ehrlich's ascitic carcinoma in vitro; assay type: cell-based, mouse; details: for Radioactivity incorporation, adenine: control 1060 cpm; for Radioactivity incorporation, valine: control 2455 cpm; for activity at 75 µM / activity at 150 µM / activity at 300 µM / activity at 600 µM / IC50 / activity at 37.5 µM: Mus musculus, Ehrlich; for IC50: in vitro
Source text: In Table 4, the effect of Tiloron (NSC 143969; 2,7-bis-[2-(diethylamino)ethoxy]fluorene-9-one) and 5-(2-dimethylaminoethoxy)-7-oxo-7H-benzo(c) fluorene hydrochloride are compared on incorporation of ^14 C-adenine and ^14 C-valine with the cellular fraction of Ehrlich's ascitic carcinoma (insoluble in trichloacetic acid). The tests in vitro reveal that the composition of the invention was more than 10 times as effective as Tiloron. The inhibition of incorporation of adenine and valine into the used system of tumor cells is considered as an indication of an anti-tumorous, cytostatic action. This biological activity of the described compound is considerably greater than that of its congener Tiloron. (See also Table 4.)
Effects of Tiloron and substance 13468 on incorporation of ^14
C-adenine and ^14 C-valine
into cellular fraction of Ehrlichs ascitic carcinoma, insoluble in
in vitro. Radioactivity incorporation expressed in cpm.
IC50 = concentration inhibiting incorporation by 50 percent.

[2] = system: Yoshida's Tumor; test: Inhibition of incorporation of labelled substrates in Yoshida's tumor; assay type: cell-based; details: Rattus norvegicus, (U-14C) amino acid mixture, Table VI, read-out: IC50 (concentration lowering initial rate of 14C incorporation to 50% of control)
Source text: Tumor growth may be observed clinically or in experiments in vivo, that is, with experimental animals, or in vitro, for example, in tissue cultures prepared from tumors. Assessment of tumor growth may be effected by measuring the weight of the tumor mass or, more effectively, by measuring the radioactivity after incorporation therein of certain substances of natural origin such as amino acids, adenine, thymidine and the like labelled with radioactive atoms such as ^14 C, ^3 H, etc.
Thus, by way of exemplification, the IC^50 values (inhibitory concentration which lowered the initial rate of ^14 C incorporation to 50% of control) are shown in Table VI, below (Yoshida's Tumor, (U-^14 C) amino acid mixture)
The ^IC 50 values of compound 13468 are also shown in Table VII with varying substrates.

[3] = system: HK: solid tumors, originally spontaneous mammary-gland adenocarcinoma; test: Effect on course of transplanted HK solid mammary-gland adenocarcinoma in mice; assay type: in vivo, mouse (H); details: for Relative tumour size (% of control value): assessed day 14
Source text: (§1) The therapeutic effect of the described compounds on transplanted tumors in experimental animals is shown in Tables 1-3, on the following five pages.
(§2) &=statistically significant differences versus control at P=0.05
HK: Solid tumors, originally spontaneous mammary-gland adenocarcinoma in H mice

[4] = system: La leukaemia; test: Effect on course of transplanted La leukaemia in mice; assay type: in vivo, mouse (C57 Bl)
Source text: as §1, §2
La: La leukaemia in mice C57 Bl

[5] = system: L1210 leukaemia; test: Effect on course of transplanted L1210 leukaemia in mice; assay type: in vivo, mouse (hybrid DBA/H)
Source text: as §1, §2
L1210 : Leukaemia growing in the form of ascitic tumors in hybrid DBA/H mice

[6] = system: Yoshida's ascitic tumor; test: Effect on course of transplanted Yoshida's ascitic tumor in rats; assay type: in vivo, rat (Wistar); details: for % of animals surviving day 35 after transplantation: control K = 0%
Source text: as §1, §2
Y: Yoshida's ascitic tumor in Wistar rats

[7] = system: EST: Ehrlich's solid tumor; test: Effect on course of transplanted Ehrlich's solid tumor in mice; assay type: in vivo, mouse (H); details: days 5,7,9,12; for Relative tumour size (% of control value): assessed day 14
Source text: as §1, §2
EST: Ehrlich's solid tumor in H mice

[8] = system: Kr2: Krebs' ascitic tumor; test: Effect on course of transplanted Krebs' ascitic tumor in mice; assay type: in vivo, mouse (H); details: p.o. 2×150 mg/kg, days 1,8, significant (&)
Source text: as §1, §2
Kr2 : Krebs' ascitic tumor in H mice

[9] = Acute toxicity in mice; details: mouse, in vivo, sc; subcutaneously; mice S, males 22-24 gram
Source text: The anti-tumor compounds described herein have also been studied from the standpoint of toxicity and the conclusion drawn that they are not toxic to mammalian hosts. The toxicological data set forth in Table IX, below, supports this conclusion.

[10] = system: Sa37 ascitic tumor; test: Effect on course of transplanted Sa37 ascitic tumor in mice; assay type: in vivo, mouse (H); details: p.o. 3×75 mg/kg, days 1,4,7
Source text: as §1, §2
Sa37 : Ascitic tumors in H mice

[11] = p.o. 2×150 mg/kg, days 5,12, significant (&)
[12] = p.o. 4×100 mg/kg, days 5,7,9,12, significant (&)
[13] = o. (oral) 3×50 mg/kg, days 1,4,8, significant (&)
[14] = o. (oral) 3×75 mg/kg, days 1,4,8, significant (&)
[15] = o. (oral) 5×100 mg/kg, days 1-5, Tables I and II, significant (&)
[16] = s.c. 5×50 mg/kg, days 1-5, Tables I and II, significant (&)
[17] = p.o. 4×100 mg/kg, significant (&)

IC50 ([1]; 14C-adenine, read-out: IC50 (concentration inhibiting incorporation by 50 percent), adenine): 600 µM | IC50 ([1]; 14C-valine, read-out: IC50 (concentration inhibiting incorporation by 50 percent), valine): 600 µM | IC50 [2]: 154 µM
SMILES: CCN(CC)CCOc1ccc2c(c1)C(=O)c1cc(OCCN(CC)CC)ccc1-2 [Tiloron, 2,7-bis-[2-(diethylamino)ethoxy]fluorene-9-one]
Radioactivity incorporation, adenine ([1]; 75 μM): 1252 cpm | Radioactivity incorporation, valine ([1]; 75 μM): 2374 cpm | Radioactivity incorporation, adenine ([1]; 150 μM): 1096 cpm | Radioactivity incorporation, valine ([1]; 150 μM): 2247 cpm | Radioactivity incorporation, adenine ([1]; 300 μM): 979 cpm | Radioactivity incorporation, valine ([1]; 300 μM): 2443 cpm | Radioactivity incorporation, adenine ([1]; 600 μM): 563 cpm | Radioactivity incorporation, valine ([1]; 600 μM): 1944 cpm | Radioactivity incorporation, adenine ([1]; 37,5 μM): 1160 cpm | Radioactivity incorporation, valine ([1]; 37,5 μM): 2395 cpm | activity at 75 µM ([1]; 75 μM, read-out: Incorporation of adenine relative to control (0 μM = 100%)): 118% | activity at 75 µM ([1]; 75 μM, read-out: Incorporation of valine relative to control (0 μM = 100%)): 97% | activity at 150 µM ([1]; 150 μM, read-out: Incorporation of adenine relative to control (0 μM = 100%)): 103% | activity at 150 µM ([1]; 150 μM, read-out: Incorporation of valine relative to control (0 μM = 100%)): 92% | activity at 300 µM ([1]; 300 μM, read-out: Incorporation of adenine relative to control (0 μM = 100%)): 92% | activity at 300 µM ([1]; 300 μM, read-out: Incorporation of valine relative to control (0 μM = 100%)): 100% | activity at 600 µM ([1]; 600 μM, read-out: Incorporation of adenine relative to control (0 μM = 100%)): 53% | activity at 600 µM ([1]; 600 μM, read-out: Incorporation of valine relative to control (0 μM = 100%)): 79% | activity at 37.5 µM ([1]; 37,5 μM, read-out: Incorporation of adenine relative to control (0 μM = 100%)): 109% | activity at 37.5 µM ([1]; 37,5 μM, read-out: Incorporation of valine relative to control (0 μM = 100%)): 98%

SMILES: CN(C)CCCOc1cc2c(c3ccccc13)-c1ccccc1C2=O.Cl [compound 13466, 5-(3-Dimethylaminopropoxy)-7-oxo-7H-benzo(c) fluorene hydrochloride]
Survival time of animals with respect to geom. mean ([3]; o. (oral) 8×50 mg/kg, days 5-10,12,13, Table I, significant (&)): 131% | Relative tumour size (% of control value) ([3]; o. (oral) 8×50 mg/kg, days 5-10,12,13, Table I): 82% | Relative tumour size (% of control value) ([3]; o. (oral) 8×100 mg/kg, days 5-10,12,13): 76% | Survival time of animals with respect to geom. mean ([3]; o. (oral) 8×100 mg/kg, days 5-10,12,13, significant (&)): 112% | Relative tumour size (% of control value) [3, 11]: 65% | Survival time of animals with respect to geom. mean [3, 11]: 123% | Relative tumour size (% of control value) [3, 12]: 48% | Survival time of animals with respect to geom. mean [3, 12]: 125% | Survival time of animals with respect to geom. mean ([3]; p.o. 8×50 mg/kg, days 5-10,12,13, Table III, marked ^): 102% | Relative tumour size (% of control value) ([3]; p.o. 8×50 mg/kg, days 5-10,12,13, Table III, significant (&)): 73% | Survival time of animals with respect to geom. mean ([3]; s.c. 8×50 mg/kg, days 5-10,12,13, Table I, significant (&)): 121% | Survival time of animals with respect to geom. mean ([3]; s.c. 8×50 mg/kg, days 5-10,12,13, Table III, marked ^): 107% | Relative tumour size (% of control value) ([3]; s.c. 8×50 mg/kg, days 5-10,12,13, Table I): 66% | Relative tumour size (% of control value) ([3]; s.c. 8×50 mg/kg, days 5-10,12,13, Table III, significant (&)): 58% | Survival time of animals with respect to median ([4]; s.c. 1×200 mg/kg, day 3 after transplantation, significant vs control (&, P=0.05)): 113% | Survival time of animals with respect to median ([4]; s.c. 1×250 mg/kg, day 3, significant (&)): 500% | Survival time of animals with respect to median ([5]; s.c. 6×50 mg/kg, days 1;5;8;12;15;19, significant (&)): 117% | Survival time of animals with respect to median ([5]; s.c. 6×75 mg/kg, days 1;5;8;12;15;19, significant (&)): 142% | Survival time of animals with respect to median ([5]; s.c. 6×100 mg/kg, days 1;5;8;12;15;19, significant (&)): 142% | Survival time of animals with respect to median ([5]; s.c. 6×125 mg/kg, days 1;5;8;12;15;19, marked ^): 168% | % of animals surviving day 35 after transplantation [6, 13]: 50% | Survival time of animals with respect to geom. mean [6, 13]: 152% | % of animals surviving day 35 after transplantation [6, 14]: 40% | Survival time of animals with respect to geom. mean [6, 14]: 140% | Survival time of animals with respect to geom. mean ([6]; o. (oral) 5×100 mg/kg, days 1-5, Table III, significant (&)): 135% | Survival time of animals with respect to geom. mean [6, 15]: 135% | Survival time of animals with respect to geom. mean ([6]; s.c. 5×50 mg/kg, days 1-5, Table III, marked ^): 103% | Survival time of animals with respect to geom. mean [6, 16]: 177% | Relative tumour size (% of control value) ([7]; p.o. 4×50 mg/kg, marked ^): 77% | Survival time of animals with respect to geom. mean ([7]; p.o. 4×50 mg/kg, significant (&)): 135% | Relative tumour size (% of control value) [7, 17]: 70% | Survival time of animals with respect to geom. mean [7, 17]: 134% | Relative tumour size (% of control value) ([8]; assessed day 10): 62% | Survival time of animals with respect to geom. mean [8]: 128% | LD50 [9]: 320 mg/kg | Relative tumour size (% of control value) ([10]; assessed day 10, marked ^): 92% | Survival time of animals with respect to geom. mean ([10]; significant (&)): 123% | IC50 [2]: 120 µM

SMILES: CN(C)CC(C)(C)COc1cc2c(c3ccccc13)-c1ccccc1C2=O [compound 13467, hydrochloride]
Survival time of animals with respect to geom. mean ([3]; s.c. 8×25 mg/kg, days 5-10,12,13): 89% | Relative tumour size (% of control value) ([3]; s.c. 8×25 mg/kg, days 5-10,12,13, significant (&)): 45% | Survival time of animals with respect to median ([4]; s.c. 1×300 mg/kg, day 3, significant (&)): 186% | Survival time of animals with respect to median ([5]; s.c. 1×250 mg/kg, day 1, significant (&)): 135% | Survival time of animals with respect to geom. mean [6, 15]: 256% | Survival time of animals with respect to geom. mean [6, 16]: 232% | LD50 [9]: 550 mg/kg | IC50 [2]: 101 µM
